From US9518988B2, “Antibodies and methods of using same for treating ErbB/ErbB ligands associated diseases” (Yeda Research and Development Co. Ltd., priority 2010, dated 2016)

How the values were obtained:
[1] = tested on: BxPC3 pancreatic tumor cells; assay: Cell proliferation assay (MTT), BxPC3; format: cell-based, human; details: gemcitabine 50 mg/ml
Experimental: (§1) FIGS. 4A-B depict effective inhibition of proliferation and tumorigenicity (in vitro and in vivo) of human pancreatic cancer cells by a combination of anti-TGFα and anti-HB-EGF mAbs. […] BxPC3 cells (2×10^4) were seeded in a 96-well plate and allowed to adhere overnight, prior to the addition of anti-TGFα or anti-HB-EGF mAbs (each at 30 μg/ml), or a mixture of both mAbs (each at 15 μg/ml). Cell proliferation was determined in hexaplicates after 96 hours using the MTT method. Averages±S.D. are shown. The experiment was repeated twice. […] Female nude mice (6 week old) were inoculated subcutaneously with 2×10^6 BxPC3 cells. […]
(§2) FIGS. 5A-B depict effective inhibition of human pancreatic cancer cell growth (in vitro and in vivo) by a combination of two mAbs and chemotherapy. […] Of note, body weight monitoring detected no consistent trends and differences other than a slow gain of weight (data not shown).
BxPC3 pancreatic tumor cells were plated on 96-well plates (2,000 cells/well), in hexaplicates. […] Proliferation was measured after 24, 48 and 72 hours using the MTT method as was previously described [Mossmann T. J., Immunol Methods. […] Absorbance was determined at 570 nm.
BxPC3 pancreatic tumor cells were plated on 96-well plates (2,000 cells/well), in hexaplicates. […] Proliferation was measured after 24, 48 and 72 hours using the MTT method. […] Absorbance was determined at 570 nm.

[2] = tested on: BxPC3 xenografts; assay: Anti-tumor activity in nude mice, BxPC3 xenografts; format: in vivo; details: two intraperitoneal injections (days 16 and 21), 150 mg/kg body weight
Experimental: as §1, §2
(§3) Female atymic NCr-nude mice (6 week old; Harlen, Israel) were inoculated subcutaneously with 2×10^6 human cancer cells. […] Tumor volumes were monitored twice a week, and body weights were measured once a week.
as §3

[3] = tested on: EGFR phosphorylation on tyrosine residues; assay: Biological activity of purified recombinant ligands: EGFR phosphorylation on tyrosine residues; format: cell-based; details: TRX-TGFα 2, 20, 200 ng/ml; TRX-HB-EGF 3, 30, 300 ng/ml; 10 minute incubation
Experimental: FIGS. 1A-E depict construction, expression and biological activity of recombinant EGF-like ligands and detection of TGFα blocking antibodies using a GPI-anchored TGFα. […] Residue numbers are indicated. […] Molecular weight markers are indicated in kilodaltons. […] Cells were seeded in a 24-well plate, washed and incubated with increasing concentrations of the purified fusion proteins (TRX-TGFα: 2, 20, 200 ng/ml; TRX-HB-EGF: 3, 30, 300 ng/ml). EGF (10 ng/ml) was used as a positive control. After 10 minute incubation, the cells were lysed, and cleared extracts were immunoblotted (IB) with an anti-phosphotyrosine (P-Tyr) antibody. […] Residue numbers refer to TGFα. Cysteine residues of the EGF-like domain are highlighted. […] Cells were seeded in a 24-well plate, washed and incubated with or without TGFα (5 ng/ml), and with increasing volumes of an anti-serum from TGFα-immunized mice (0.2, 2, 4, 6, 8 and 10 μl of serum diluted in 120 μl total; control: 10 μl serum from a naive animal). An anti-phosphotyrosine mAb was used to detect phosphorylated EGFR.
Cells were seeded in a 24-well plate. Twenty-four hours later, cells were washed and incubated with different agents. After ten minutes of incubation, the cells were lysed and cleared extracts were electrophoresed, then immunoblotted with an anti-phosphotyrosine mAb, an anti-EGFR mAb (HeLa) or with an anti-ErbB-3 mAb (T47D).

Nc1ccn([C@@H]2O[C@H](CO)[C@@H](O)C2(F)F)c(=O)n1 [gemcitabine]
growth inhibition of cultured BxPC3 cells (MTT), gemcitabine alone [1]: growth inhibitory effect | inhibition of tumor growth, BxPC3 xenografts [2]: more than 85%

TGFα: EGF-like domain of TGFα expressed in bacteria as thioredoxin (TRX) fusion protein, used as immunogen
ability to induce EGFR phosphorylation on tyrosine residues [3]: functionally active conformation

B1: HB-EGF: EGF-like domain of HB-EGF expressed in bacteria as thioredoxin (TRX) fusion protein, used as immunogen (protein)
chain: DLQEADLDLLRVTLSSKPQALATPNKEEHGKRKKKGKGLGKKRDPCLRKYKDFCIHGECKYVKELRAPSCICHPGYHGERCHGLSL
ability to induce EGFR phosphorylation on tyrosine residues [3]: functionally active conformation
